In brackets after ≈: the same amount, converted by molar mass. Like-named read-outs stand apart in the source and are kept apart here.
Tests used:
[1] = test system: Pseudomonas aeruginosa (Pa); assay: Minimum inhibitory concentration (MIC) in nutrient agar; format: cell-based, Pseudomonas aeruginosa ATCC 10145; details: 48 hours
Description: (§1) The minimum inhibitory concentration (MIC) for the compounds listed in Table I is determined for 9 bacteria, using nutrient agar: and 7 yeast and fungi, using malt yeast agar. A one percent solution of the test compound is prepared in a mixture of acetone and water. Nutrient agar is prepared at pH 6.8, representing a neutral medium, and at pH 8.2, representing an alkaline medium. The nutrient agars are prepared by adding 23 g of nutrient agar to one-liter of deionized water. In addition, the alkaline medium is prepared by adjusting a 0.04M solution of N-[tris-(hydroxymethyl)methyl]-glycine buffered deionized water with concentrated sodium hydroxide to a pH of […]. Malt yeast agar is prepared by adding 3 g yeast extract and 45 g malt agar per liter of deionized water. The specific agar is dispensed in 30 ml aliquots into 25×200 mm test tubes, capped and autoclaved for 15 minutes at 115° C. The test tubes containing the agar are cooled in a water bath until the temperature of the agar is 48° C. Then, an appropriate amount of the one percent solution of the test compound is added (except in the controls where no compound is added) to the respective test tubes so that the final concentrations are 500, 250, 100, 50, 25, 10, 5, 2.5, 1.0 and zero parts per million of the test compound in the agar, thus having a known concentration of test compound dispersed therein. The contents of the test tubes are then transferred to respective petri plates. After drying for 24 hours, the petri plates containing nutrient agar are inoculated with bacteria and those containing malt yeast agar are inoculated with yeast and fungi.
(§2) The inoculation with bacteria is accomplished by using the following procedure. Twenty-four hour-cultures of each of the bacteria are prepared by incubating the respective bacteria in tubes containing nutrient broth for 24 hours at 30° C. in a shaker. Dilutions of each of the 24 hour-cultures are made so that nine separate suspensions (one for each of the nine test bacteria) are made, each containing 10^8 colony forming units (CFU) per ml of suspension of a particular bacteria. Aliquots of 0.3 ml of each of the bacterial suspensions are used to fill the individual wells of Steer's Replicator. For each microbial suspension, 0.3 ml was used to fill three wells (i.e., three wells of 0.3 ml each) so that for the nine different bacteria, 27 wells are filled. The Steer's Replicator is then used to inoculate both the neutral and alkaline pH nutrient agar petri plates.
(§3) The inoculated petri plates are incubated at 30° C. for 48 hours and then read to determine if the test compound which is incorporated into the agar prevented growth of the respective bacteria.
(§4) Table II lists the bacteria, yeast and fungi used in the MIC test described above along with their respective American Type Culture Collection (ATCC) identification numbers.

[2] = test system: Enterobacter aerogenes (Ea); assay: as above; format: cell-based, Enterobacter aerogenes ATCC 13048; details: Klebsiella aerogenes, 48 h
Description: as §1, §2, §3, §4

[3] = test system: Aureobasidium pullulan (Ap); assay: Minimum inhibitory concentration (MIC) in malt yeast agar; format: cell-based, Aureobasidium pullulan ATCC 16622; details: read-out: Minimum Inhibitory Concentration, Ap
Description: as §1
(§5) The inoculation with the yeast and fungi is accomplished as follows. Cultures of yeast and fungi are incubated for seven days on malt yeast agar at 30° C. These cultures are used to prepare suspensions by the following procedure. A suspension of each organism is prepared by adding 10 ml of sterile saline and 10 microliters of octylphenoxy polyethoxy ethanol to the agar slant of yeast or fungi. The sterile saline/octylphenoxy polyethoxy ethanol solution is then agitated with a sterile swab to suspend the microorganism grown on the slant. Each resulting suspension is diluted into sterile saline (1 part suspension: 9 parts sterile saline). Aliquots of these dilutions are placed in individual wells of Steer's Replicator and petri plates inoculated as previously described. The petri plates are incubated at 30° C. and read after 48 hours for yeast and 72 hours for fungi.
as §4

[4] = test system: Staphylococcus aureus (Sa); assay: Minimum inhibitory concentration (MIC) in nutrient agar; format: cell-based, Staphylococcus aureus ATCC 6538
Description: as §1, §2, §3, §4

[5] = test system: Salmonella choleraesuis (Sc); assay: as above; format: cell-based, Salmonella choleraesuis ATCC 10708; details: Salmonella enterica
Description: as §1, §2, §3, §4

[6] = test system: Pseudomonas aeruginosa (PRD-10); assay: as above; format: cell-based, Pseudomonas aeruginosa ATCC 15442; details: 48 h
Description: as §1, §2, §3, §4

Trichoderma viride (Tv) = assay: Minimum inhibitory concentration (MIC) in malt yeast agar; format: cell-based, Trichoderma viride ATCC 8678; details: malt yeast agar; 30° C.; 72 hours for fungi; read-out: Minimum Inhibitory Concentration, Tv
Description: as §1, §5, §4

[7] = test system: Penicillium chrysogenum (Pc); assay: as above; format: cell-based, Penicillium chrysogenum ATCC 9480; details: read-out: Minimum Inhibitory Concentration, Pc
Description: as §1, §5, §4

[8] = test system: Saccharomyces cerevisiae (Sc); assay: as above; format: cell-based, Saccharomyces cerevisiae ATCC 4105; details: malt yeast agar, 30° C., 48 hours for yeast, read-out: Minimum Inhibitory Concentration, Sc
Description: as §1, §5, §4

[9] = test system: Klebsiella pneumoniae (Kp); assay: Minimum inhibitory concentration (MIC) in nutrient agar; format: cell-based, Klebsiella pneumoniae ATCC 8308
Description: as §1, §2, §3, §4

Proteus vulgaris (Pv) = assay: as above; format: cell-based, Proteus vulgaris ATCC 881
Description: as §1, §2, §3, §4

Bacillus subtilis (Bs) = assay: as above; format: cell-based, Bacillus subtilis ATCC 8473
Description: as §1, §2, §3, §4

Escherichia coli (Ec) = assay: as above; format: cell-based, Escherichia coli ATCC 11229
Description: as §1, §2, §3, §4

Candida albicans (Ca) = assay: Minimum inhibitory concentration (MIC) in malt yeast agar; format: cell-based, Candida albicans ATCC 10231; details: malt yeast agar; 30° C.; 48 hours for yeast; read-out: Minimum Inhibitory Concentration, Ca
Description: as §1, §5, §4

Fusarium oxysporum (Fo) = assay: as above; format: cell-based, Fusarium oxysporum ATCC 48112; details: malt yeast agar; 30° C.; 72 hours for fungi; read-out: Minimum Inhibitory Concentration, Fo
Description: as §1, §5, §4

Aspergillus niger (An) = assay: as above; format: cell-based, Aspergillus niger ATCC 16404; details: malt yeast agar; 30° C.; 72 hours for fungi; read-out: Minimum Inhibitory Concentration, An
Description: as §1, §5, §4

[10] = pH 6.8, read-out: Minimum Inhibitory Concentration, Ea
[11] = pH 8.2, read-out: Minimum Inhibitory Concentration, Ea
[12] = malt yeast agar, 30° C., 48 hours for yeast and 72 hours for fungi
[13] = 48 h, pH 8.2, read-out: Minimum Inhibitory Concentration, Sa
[14] = pH 6.8, nutrient agar, 30° C., 48 hours, read-out: Minimum Inhibitory Concentration, Sa
[15] = 48 h, pH 6.8, read-out: Minimum Inhibitory Concentration, Sc
[16] = 48 h, pH 8.2, read-out: Minimum Inhibitory Concentration, Sc
[17] = pH 6.8, read-out: Minimum Inhibitory Concentration, PRD
[18] = pH 8.2, read-out: Minimum Inhibitory Concentration, PRD
[19] = malt yeast agar, 30° C., 72 hours for fungi
[20] = 48 h, pH 8.2, read-out: Minimum Inhibitory Concentration, Kp
[21] = pH 6.8, nutrient agar, 30° C., 48 hours, read-out: Minimum Inhibitory Concentration, Kp
[22] = 48 h, pH 6.8, read-out: Minimum Inhibitory Concentration, Pv
[23] = 48 h, pH 8.2, read-out: Minimum Inhibitory Concentration, Pv
[24] = 48 h, pH 6.8, read-out: Minimum Inhibitory Concentration, Bs
[25] = 48 h, pH 8.2, read-out: Minimum Inhibitory Concentration, Bs
[26] = 48 h, pH 6.8, read-out: Minimum Inhibitory Concentration, Ec
[27] = 48 h, pH 8.2, read-out: Minimum Inhibitory Concentration, Ec

SMILES	MIC ([1]; pH 6.8, 30° C.) [µg/mL]	MIC ([1]; pH 8.2, 30° C.) [µg/mL]	MIC [2, 10] [µg/mL]	MIC [2, 11] [µg/mL]	MIC [3, 12] [µg/mL]	MIC [4, 13] [µg/mL]	MIC [4, 14] [µg/mL]	MIC [5, 15] [µg/mL]	MIC [5, 16] [µg/mL]	MIC [6, 17] [µg/mL]	MIC [6, 18] [µg/mL]	MIC (Trichoderma viride (Tv)) [µg/mL]	MIC [7, 19] [µg/mL]	MIC [8] [µg/mL]	MIC [9, 20] [µg/mL]	MIC (Proteus vulgaris (Pv); [23]) [µg/mL]	MIC (Escherichia coli (Ec); [27]) [µg/mL]	MIC (Candida albicans (Ca)) [µg/mL]	MIC (Fusarium oxysporum (Fo)) [µg/mL]	MIC (Aspergillus niger (An)) [µg/mL]	also measured
N#CC(C#N)=C1Sc2nc3ccc(C(=O)c4ccccc4)cc3nc2S1 [W, 6-benzoyl-1,3-dithiolo-(4,5-b)-quinoxaline-2-ylidene-propanedinitrile]	> 500	> 500	> 500	> 500	500 (≈ 1340 µM)	> 500	> 500	> 500	> 500	> 500	> 500	> 500	> 500	> 500	> 500	> 500	> 500	> 500	> 500	> 500	MIC [9, 21]: > 500 µg/mL; MIC (Proteus vulgaris (Pv); [22]): > 500 µg/mL; MIC (Bacillus subtilis (Bs); [24]): > 500 µg/mL; MIC (Bacillus subtilis (Bs); [25]): > 500 µg/mL; MIC (Escherichia coli (Ec); [26]): > 500 µg/mL
N#CC(C#N)=C1Sc2nc3cc(Cl)c([N+](=O)[O-])cc3nc2S1 [Q, 6-chloro-7-nitro-1,3-dithiolo-(4,5-b)-quinoxaline-2-ylidene-propanedinitrile]	> 500	> 500	> 500	> 500	–	> 500	> 500	> 500	> 500	> 500	> 500	> 500	500 (≈ 1440 µM)	500 (≈ 1440 µM)	> 500	> 500	> 500	500 (≈ 1440 µM)	> 500	500 (≈ 1440 µM)	MIC [3]: 50 µg/mL (≈ 144 µM); MIC [9, 21]: > 500 µg/mL; MIC (Proteus vulgaris (Pv); [22]): > 500 µg/mL; MIC (Bacillus subtilis (Bs); [24]): > 500 µg/mL; MIC (Bacillus subtilis (Bs); [25]): > 500 µg/mL; MIC (Escherichia coli (Ec); [26]): > 500 µg/mL
COC(=O)c1ccc2nc3c(nc2c1)SC(C#N)=C(C#N)S3 [I, 7-carbomethoxy-1,4-dithiino-(2,3-b)-quinoxaline-2,3-dicarbonitrile]	500 (≈ 1530 µM)	> 500	> 500	> 500	< 10	–	25 (≈ 76.6 µM)	–	> 500	500 (≈ 1530 µM)	> 500	25 (≈ 76.6 µM)	< 10	< 10	> 500	> 500	> 500	< 10	< 10	< 10	MIC ([4]; pH 8.2, nutrient agar, 30° C., 48 hours, read-out: Minimum Inhibitory Concentration, Sa): 100 µg/mL (≈ 306 µM); MIC ([5]; pH 6.8, nutrient agar, 30° C., 48 hours, read-out: Minimum Inhibitory Concentration, Sc): 100 µg/mL (≈ 306 µM); MIC ([9]; 48 h, pH 6.8, read-out: Minimum Inhibitory Concentration, Kp): 50 µg/mL (≈ 153 µM); MIC (Proteus vulgaris (Pv); pH 6.8, nutrient agar, 30° C., 48 hours, read-out: Minimum Inhibitory Concentration, Pv): 100 µg/mL (≈ 306 µM); MIC (Bacillus subtilis (Bs); pH 6.8, nutrient agar, 30° C., 48 hours, read-out: Minimum Inhibitory Concentration, Bs): < 10 µg/mL; MIC (Bacillus subtilis (Bs); pH 8.2, nutrient agar, 30° C., 48 hours, read-out: Minimum Inhibitory Concentration, Bs): 50 µg/mL (≈ 153 µM); MIC (Escherichia coli (Ec); pH 6.8, nutrient agar, 30° C., 48 hours, read-out: Minimum Inhibitory Concentration, Ec): 100 µg/mL (≈ 306 µM)
Cc1cc2nc3c(nc2cc1[N+](=O)[O-])SC(=C(C#N)C#N)S3 [R, 6-nitro-7-methyl-1,3-dithiolo-(4,5-b)-quinoxaline-2-ylidene-propanedinitrile]	> 500	> 500	> 500	> 500	500 (≈ 1530 µM)	> 500	> 500	> 500	> 500	> 500	> 500	> 500	–	500 (≈ 1530 µM)	> 500	> 500	> 500	> 500	> 500	100 (≈ 305 µM)	MIC ([7]; 72 h): 50 µg/mL (≈ 153 µM); MIC [9, 21]: > 500 µg/mL; MIC (Proteus vulgaris (Pv); [22]): > 500 µg/mL; MIC (Bacillus subtilis (Bs); [24]): > 500 µg/mL; MIC (Bacillus subtilis (Bs); [25]): > 500 µg/mL; MIC (Escherichia coli (Ec); [26]): > 500 µg/mL

— patent US5200409A, “Composition and use of substituted 1,3-dithiolo-and 1,4-dithiinoquinoxalines as an antimicrobial” (The Dow Chemical Company, priority 1992, dated 1993)
